Results reported in US11401253B2, “16-methyl-oxacyclohexadecan-2-one and 16-methyl-azacyclohexadecan-2-one derivatives as antimicrobial agents” (THE UNIVERSITY OF MONTANA, priority 2017, dated 2022).
Values after ≈ are worked out from the molar mass of the structure shown. Values joined by “and” are separate entries in the source; they are usually repeats but may differ in a detail not shown here. Equal values may be shown once. “Also recorded” adds a separate entry of the source.

Key:
[1] = system: primary human peripheral blood mononuclear cells (PBMCs); assay: Cell death in primary PBMCs; assay type: cell-based; conditions: highest concentration tested, 500 μg/ml
Method: Additionally the BPL76 compound was tested against primary human peripheral blood mononuclear cells (PBMCs) and induced very little cell death, with only up to 60% death induced at the highest concentration tested, 500 μg/ml (not shown).

[2] = system: S. aureus CAIRD148; assay: Antibiotic testing, methicillin-resistant S. aureus CAIRD148; assay type: cell-based; conditions: Staphylococcus aureus, CAIRD148; methicillin-resistant strain
Text: (§1) Both the methyl ester and the diacetate derivatives of BPL 76 slightly less but still very strong activity against the same four MRSA strains (Table 11). The activities of compounds BPL 76 and BPL 81 were compared to several known antibiotics against three methicillin-resistant strains of S. aureus [FIG. 6, comparative data provided by Hartford Hospital, Center for Anti-Infective Research and Development (CAIRD)].

[3] = system: Candida glabrata; assay: Antibiotic testing (MIC), Candida glabrata; assay type: cell-based; conditions: Nakaseomyces glabratus; growth inhibition ≥90%; read-out: minimum inhibitory concentration, Candida glabrata
[4] = system: B. anthracis; assay: microbe, parasite or virus in culture; assay type: cell-based; conditions: Bacillus anthracis, read-out: minimum inhibitory concentration, B. anthracis
[5] = Bactericidal activity (therapeutic index statement); assay type: cell-based
[6] = system: Bacillus subtilis; assay: Antibiotic testing (MIC), Bacillus subtilis; assay type: cell-based; conditions: growth inhibition ≥90%, read-out: minimum inhibitory concentration, Bacillus subtilis
[7] = system: Mycobacterium tuberculosis; assay: microbe, parasite or virus in culture; conditions: read-out: MIC, MABA
[8] = system: C. albicans; assay: Antibiotic testing (MIC), C. albicans; assay type: cell-based; conditions: Candida albicans; growth inhibition ≥90%; read-out: minimum inhibitory concentration, C. albicans
[9] = system: Staphylococcus aureus (13709); assay: Antibiotic testing (MIC), S. aureus 13709; assay type: cell-based; conditions: growth inhibition ≥90% relative to drug-free controls, read-out: minimum inhibitory concentration, Staphylococcus aureus (13709)
[10] = system: S. aureus CAIRD116; assay: Antibiotic testing, methicillin-resistant S. aureus CAIRD116; assay type: cell-based; conditions: Staphylococcus aureus, CAIRD116; methicillin-resistant strain
Text: as §1

[11] = system: Streptococcus pyogenes; assay: Antibiotic testing (MIC), Streptococcus pyogenes; assay type: cell-based; conditions: growth inhibition ≥90%, read-out: minimum inhibitory concentration, Streptococcus pyogenes
[12] = system: J774; assay: Cytotoxicity (MTS), J774 cells; assay type: cell-based, murine; conditions: Mus musculus, 72 hours exposure
[13] = system: GFP synthesis; assay: Cell-free translation assay with GFP reporter; assay type: biochemical; conditions: 50 μM and 250 μM, 37° C., readings for 2 hr
Method: Further assessment of the effect of BPL76 on protein translation was done using a cell-free translation assay. The plasmid pY71-sfGFP^55 (5 ng) was translated in the PUREexpress in vitro protein synthesis system (New England Biolabs). The final concentrations of erythromycin, josamycin and tylosin in the translation reactions were 50 μM. The reactions were incubated at 37° C. and fluorescence readings (excitation: 488 nm, emission, 520 nm) were taken every 20 min for 2 hr.

[14] = system: S. aureus CAIRD142; assay: Antibiotic testing, methicillin-resistant S. aureus CAIRD142; assay type: cell-based; conditions: Staphylococcus aureus, CAIRD142; methicillin-resistant strain
Text: as §1

[15] = system: Vero, HepG2 and J774 cells; assay: Cytotoxicity, mammalian cell lines (summary statement); assay type: cell-based
Method: Cytotoxicity for Vero, HepG2 and J774 cells were determined following 72 hours exposure to BPL76 and analogs. Cell viability was assessed on the basis of cellular conversion of MTS dye into a soluble formazan product using the Promega CellTiter 96 Aqueous Non-Radioactive Cell Proliferation Assay. After incubation at 37° C. for 72 h, medium was removed and monolayers were washed twice with 100 μl of warm Hanks' balanced salt solution (HBSS). One hundred microliters of warm medium and 20 μl of freshly made MTS-PMS [3-(4,5-dimethylthiazol-2-yl)-5-(3-carboxymethoxyphenyl)-2-(4-sulfophenyl)-2H-tetrazolium and […]](100:20) (Promega) were added to each well, plates were incubated for 3 h, and absorbance was determined at 490 nm. Viability was assessed on the basis of cellular conversion of MTS dye into a soluble formazan product using the Promega CellTiter 96 Aqueous Non-Radioactive Cell Proliferation Assay as described in Falzari K, Zhu Z, Pan D, Liu H, Hongmanee P, et al. (2005). In vitro and in vivo activities of macrolide derivatives against Mycobacterium tuberculosis were determined as described in Ekins, S, Reynolds, R C, Franzblau, S G, et al. Enhancing Hit Identification in Mycobacterium tuberculosis Drug Discovery Using Validated Dual-Event Bayesian Models PLOS ONE (2013) 8:5, e63240. […]

[16] = system: HepG2; assay: Cytotoxicity (MTS), HepG2 cells; assay type: cell-based; conditions: Homo sapiens, 72 hours exposure
[17] = system: K. pneumoniae (10031); assay: Antibiotic testing (MIC), gram negative K. pneumoniae; assay type: cell-based
Method: (§2) None of this collection of compounds were active against Gram-negative bacteria
(§3) Additionally, BPL 76 and derivatives were tested against a panel of gram negative bacteria including K. pneumonia, P. aeruginosa and E. coli (Table 12).

[18] = system: Gram-positive bacteria; assay: Antibiotic panel, Gram-positive bacteria; assay type: cell-based; conditions: 1 μM-1 mM/well
Text: as §2

[19] = system: P. aeruginosa; assay: Antibiotic testing (MIC), gram negative P. aeruginosa; assay type: cell-based; conditions: Pseudomonas aeruginosa; read-out: MIC, P. aeruginosa
Method: as §2, §3

[20] = system: Vero cell; assay: Cytotoxicity (MTS), Vero cells; assay type: cell-based, monkey; conditions: Primates, 72 hours exposure
[21] = system: Enterococcus faecalis; assay: Antibiotic testing (MIC), Enterococcus faecalis; assay type: cell-based; conditions: growth inhibition ≥90%, read-out: minimum inhibitory concentration, Enterococcus faecalis
[22] = system: non-replicating persistence Mycobacterium tuberculosis (NRP-TB); assay: Low oxygen recovery assay (LORA), non-replicating persistence Mtb; assay type: cell-based; conditions: non-replicating persistence, hypoxic conditions
[23] = system: Mycobacterium tuberculosis
[24] = system: E. coli (25922); assay: Antibiotic testing (MIC), gram negative E. coli; assay type: cell-based
Method: as §2, §3

With C[C@@H]1CCCCCCCCC[C@H](O)C(=O)C[C@@H](SC[C@@H](O)C(=O)O)C(=O)O1 [BPL 76, (S)-2-hydroxy-3-(((3R,6S,16R)-6-hydroxy-16-methyl-2,5-dioxooxacyclohexadecan-3-yl)thio)propanoic acid] the “cell death induced in PBMCs” value [1] was “up to 60%”, the MIC [2] was 1 µg/mL (≈ 2.47 µM) and the MIC [3] was 6 µg/mL (≈ 14.8 µM). For the same compound, the MIC [4] was 3 µg/mL (≈ 7.42 µM), the “efficacious concentration to induce bactericidal activity” value [5] was about 1 µg/mL and the MIC [6] was 13 µg/mL (≈ 32.1 µM). The MIC [7] was 25 µg/mL (≈ 61.8 µM), the MIC [8] was 26 µg/mL (≈ 64.3 µM) and the MIC [9] was 1 µg/mL (≈ 2.47 µM). For the same compound, the MIC [10] was 1 µg/mL (≈ 2.47 µM), the MIC [11] was 3 µg/mL (≈ 7.42 µM) and the IC50 [12] was 16.8 µg/mL (≈ 41.5 µM). The “effect on GFP synthesis and corresponding fluorescence” value [13] was “no effect at either concentration; also recorded: lack of inhibition”, the MIC [14] was 2 µg/mL (≈ 4.94 µM) and the mammalian toxicity concentration [15] was about 60 µg/mL. The IC50 [16] was 64.8 µg/mL (≈ 160 µM), the “activity against K. pneumonia (in words)” value [17] was “weakly active” and the MIC ([17]; Klebsiella pneumoniae, read-out: MIC, K. pneumoniae (10031)) was 1000 µM and 405 µg/mL. For the same compound, the “activity against Gram-positive bacteria” value [18] was “strongest activity”, the MIC [19] was over 1000 µM and the IC50 [20] was 61.5 µg/mL (≈ 152 µM). For the same compound, the MIC [21] was 13 µg/mL (≈ 32.1 µM), the MIC ([22]; Mycobacterium tuberculosis, read-out: MIC, LORA) was 24 µg/mL (≈ 59.3 µM) and the “MIC, LORA” value [22] was about 24 µg/mL (≈ 59.3 µM). For the same compound, the “MIC, MABA” value [23] was about 25 µg/mL (≈ 61.8 µM), the “fold less active against Mtb than against MRSA” value [23] was 25 fold and the “times less potent than rifampicin against Mtb” value [23] was 100 ×. For the same compound, the “activity against E. coli (in words)” value [24] was “weakly active” and the MIC ([24]; Escherichia coli, read-out: MIC, E. coli (25922)) was 1000 µM and 405 µg/mL.
